Earlier results as cited in US8524293B1, “Method for producing a red grape tea-like composition” (priority 2009, dated 2013).

How the values were obtained:
flu = details: laboratory animals
[1] = tested on: intestinal tumor formation; details: cancerous mouse

Molecule | risk of flu (flu) | focal adhesion kinase activation [1] | intestinal tumor formation [1]
O=c1c(O)c(-c2ccc(O)c(O)c2)oc2cc(O)cc(O)c12 [quercetin] | reduce the risk of flu | – | –
catechin | – | suppressed focal adhesion kinase activation | inhibited intestinal tumor formation
